Experimental data from the NIST ThermoML archive (doi:10.1021/je700260f).

Conditions: Liquid, Vibrating tube method

FC(C(F)(F)F)C(F)(F)F [1,1,1,2,3,3,3-heptafluoropropane]
Conditions	mass density [kg/m3]
293.14 K, 33440 kPa	1551.5
293.14 K, 33474 kPa	1551.5
293.14 K, 33518 kPa	1551.7
293.14 K, 33554 kPa	1551.8
293.14 K, 33589 kPa	1552
293.15 K, 458 kPa	1409.2
293.15 K, 459 kPa	1409.3
293.15 K, 461 kPa	1409.2
293.15 K, 466 kPa	1409.3
293.15 K, 478 kPa	1409.2
293.15 K, 498 kPa	1409.3
293.15 K, 525 kPa	1409.6
293.15 K, 545 kPa	1409.8
293.15 K, 569 kPa	1409.9
293.15 K, 591 kPa	1410.2
293.15 K, 616 kPa	1410.3
293.15 K, 647 kPa	1410.5
293.15 K, 682 kPa	1410.9
293.15 K, 712 kPa	1411
293.15 K, 757 kPa	1411.3
293.15 K, 1646 kPa	1417.7
293.15 K, 1682 kPa	1417.8
293.15 K, 1714 kPa	1418.1
293.15 K, 1855 kPa	1419.1
293.15 K, 2431 kPa	1422.8
293.15 K, 2456 kPa	1423.1
293.15 K, 2481 kPa	1423.1
293.15 K, 2506 kPa	1423.3
293.15 K, 2536 kPa	1423.7
293.15 K, 2566 kPa	1423.7
293.15 K, 2590 kPa	1424
293.15 K, 2619 kPa	1424.2
293.15 K, 2653 kPa	1424.3
293.15 K, 3787 kPa	1431.6
293.15 K, 3853 kPa	1432
293.15 K, 3906 kPa	1432.2
293.15 K, 3939 kPa	1432.5
293.15 K, 3976 kPa	1432.7
293.15 K, 4019 kPa	1432.9
293.15 K, 4053 kPa	1433.1
293.15 K, 4077 kPa	1433.4
293.15 K, 4124 kPa	1433.7
293.15 K, 4157 kPa	1434
293.15 K, 4195 kPa	1434
293.15 K, 4219 kPa	1434.2
293.15 K, 4259 kPa	1434.4
293.15 K, 4286 kPa	1434.6
293.15 K, 4322 kPa	1434.7
293.15 K, 4367 kPa	1435
293.15 K, 4394 kPa	1435.3
293.15 K, 4425 kPa	1435.6
293.15 K, 4452 kPa	1435.7
293.15 K, 4488 kPa	1435.9
293.15 K, 4515 kPa	1435.9
293.15 K, 4556 kPa	1436.2
293.15 K, 4587 kPa	1436.4
293.15 K, 4614 kPa	1436.6
293.15 K, 4655 kPa	1436.8
293.15 K, 4687 kPa	1437
293.15 K, 4727 kPa	1437.2
293.15 K, 4754 kPa	1437.4
293.15 K, 4791 kPa	1437.7
293.15 K, 4815 kPa	1437.8
293.15 K, 4846 kPa	1438.1
293.15 K, 5062 kPa	1439.2
293.15 K, 5095 kPa	1439.5
293.15 K, 5137 kPa	1439.6
293.15 K, 5170 kPa	1440
293.15 K, 5198 kPa	1440
293.15 K, 5231 kPa	1440.3
293.15 K, 5259 kPa	1440.4
293.15 K, 5292 kPa	1440.6
293.15 K, 5321 kPa	1440.8
293.15 K, 5364 kPa	1440.9
293.15 K, 5392 kPa	1441.2
293.15 K, 5435 kPa	1441.5
293.15 K, 5472 kPa	1441.7
293.15 K, 5500 kPa	1441.9
293.15 K, 5537 kPa	1442.1
293.15 K, 5566 kPa	1442.2
293.15 K, 5610 kPa	1442.3
293.15 K, 5639 kPa	1442.6
293.15 K, 5678 kPa	1442.8
293.15 K, 5720 kPa	1443
293.15 K, 5755 kPa	1443.2
293.15 K, 5784 kPa	1443.4
293.15 K, 5818 kPa	1443.6
293.15 K, 5848 kPa	1443.8
293.15 K, 5896 kPa	1444
293.15 K, 5921 kPa	1444.1
293.15 K, 5955 kPa	1444.4
293.15 K, 5984 kPa	1444.6
293.15 K, 6018 kPa	1444.7
293.15 K, 6043 kPa	1444.8
293.15 K, 6073 kPa	1445
293.15 K, 6113 kPa	1445.2
293.15 K, 6138 kPa	1445.5
293.15 K, 6174 kPa	1445.6
293.15 K, 6205 kPa	1445.7
293.15 K, 6235 kPa	1445.9
293.15 K, 6260 kPa	1446.1
293.15 K, 6295 kPa	1446.2
293.15 K, 6323 kPa	1446.4
293.15 K, 6351 kPa	1446.6
293.15 K, 6375 kPa	1446.8
293.15 K, 6408 kPa	1446.9
293.15 K, 6437 kPa	1447
293.15 K, 6477 kPa	1447.3
293.15 K, 6508 kPa	1447.5
293.15 K, 6534 kPa	1447.6
293.15 K, 6566 kPa	1447.6
293.15 K, 6593 kPa	1447.9
293.15 K, 6624 kPa	1448.1
293.15 K, 6655 kPa	1448.4
293.15 K, 6682 kPa	1448.4
293.15 K, 6721 kPa	1448.5
293.15 K, 6752 kPa	1448.8
293.15 K, 6792 kPa	1449
293.15 K, 6823 kPa	1449.3
293.15 K, 6862 kPa	1449.5
293.15 K, 6885 kPa	1449.5
293.15 K, 6918 kPa	1449.8
293.15 K, 6944 kPa	1449.9
293.15 K, 6979 kPa	1450
293.15 K, 7002 kPa	1450.1
293.15 K, 7034 kPa	1450.4
293.15 K, 7074 kPa	1450.7
293.15 K, 7106 kPa	1450.7
293.15 K, 7134 kPa	1450.8
293.15 K, 7160 kPa	1450.9
293.15 K, 7196 kPa	1451.2
293.15 K, 7223 kPa	1451.4
293.15 K, 7255 kPa	1451.5
293.15 K, 7292 kPa	1451.6
293.15 K, 7319 kPa	1451.9
293.15 K, 7352 kPa	1452
293.15 K, 7380 kPa	1452.1
293.15 K, 7413 kPa	1452.4
293.15 K, 7445 kPa	1452.6
293.15 K, 7478 kPa	1452.7
293.15 K, 7506 kPa	1452.9
293.15 K, 7543 kPa	1453.2
293.15 K, 7575 kPa	1453.2
293.15 K, 7829 kPa	1454.6
293.15 K, 8576 kPa	1458.4
293.15 K, 8615 kPa	1458.6
293.15 K, 8640 kPa	1458.7
293.15 K, 8669 kPa	1458.9
293.15 K, 8716 kPa	1459.1
293.15 K, 8745 kPa	1459.3
293.15 K, 8774 kPa	1459.5
293.15 K, 8814 kPa	1459.7
293.15 K, 8862 kPa	1459.9
293.15 K, 8888 kPa	1460
293.15 K, 8923 kPa	1460.2
293.15 K, 8958 kPa	1460.4
293.15 K, 8988 kPa	1460.5
293.15 K, 9023 kPa	1460.7
293.15 K, 9057 kPa	1461
293.15 K, 9081 kPa	1461.1
293.15 K, 9121 kPa	1461.1
293.15 K, 9156 kPa	1461.3
293.15 K, 9182 kPa	1461.5
293.15 K, 9258 kPa	1461.9
293.15 K, 9989 kPa	1465.5
293.15 K, 10025 kPa	1465.7
293.15 K, 10056 kPa	1465.8
293.15 K, 10087 kPa	1465.9
293.15 K, 10128 kPa	1466.3
293.15 K, 10154 kPa	1466.4
293.15 K, 10195 kPa	1466.7
293.15 K, 10240 kPa	1466.8
293.15 K, 10275 kPa	1466.7
293.15 K, 10316 kPa	1467.1
293.15 K, 10555 kPa	1468.1
293.15 K, 10597 kPa	1468.5
293.15 K, 10638 kPa	1468.7
293.15 K, 10669 kPa	1468.7
293.15 K, 10706 kPa	1469
293.15 K, 10738 kPa	1469.2
293.15 K, 10775 kPa	1469.4
293.15 K, 10808 kPa	1469.4
293.15 K, 10851 kPa	1469.6
293.15 K, 10882 kPa	1469.7
293.15 K, 10920 kPa	1470
293.15 K, 10958 kPa	1470.2
293.15 K, 11044 kPa	1470.6
293.15 K, 11082 kPa	1470.6
293.15 K, 11132 kPa	1470.9
293.15 K, 11159 kPa	1471.4
293.15 K, 11209 kPa	1471.3
293.15 K, 11254 kPa	1471.6
293.15 K, 11292 kPa	1471.8
293.15 K, 11324 kPa	1471.9
293.15 K, 11368 kPa	1472.1
293.15 K, 11401 kPa	1472.3
293.15 K, 11439 kPa	1472.4
293.15 K, 11473 kPa	1472.6
293.15 K, 11518 kPa	1472.8
293.15 K, 11556 kPa	1472.9
293.15 K, 11601 kPa	1473.2
293.15 K, 11629 kPa	1473.3
293.15 K, 11668 kPa	1473.4
293.15 K, 11713 kPa	1473.7
293.15 K, 11752 kPa	1473.8
